The values that follow come from patent US20200190081A1, “META SUBSTITUTED PHENYLPYRAZOLO- AND PHENYLPYRROLO- PYRIDAZINE DERIVATIVES HAVING MULTIMODAL ACTIVITY AGAINST PAIN” (ESTEVE PHARMACEUTICALS, S.A., priority 2016, published 2020).

The target in test [1] is Human α2δ-1 Subunit of Cav2.2 Calcium Channel (Homo sapiens, UniProt P54289). Description: Human α2δ-1 subunit of Cav2.2 calcium channel assay, [3H]-Gabapentin binding. Particulars: human α2δ-1 enriched membranes, 15 nM [3H]-Gabapentin. The procedure:
Human α2δ-1 Subunit of Cav2.2 Calcium Channel Assay
Human α2δ-1 enriched membranes (2.5 μg) were incubated with 15 nM of radiolabeled [3H]-Gabapentin in assay buffer containing Hepes-KOH 10 mM, pH 7.4. NSB (non specific binding) was measured by adding 10 μM pregabalin. The binding of the test compound was measured at five different concentrations. After 60 min incubation at 27° C., binding reaction was terminated by filtering through Multiscreen GF/C (Millipore) presoaked in 0.5% polyethyleneimine in Vacuum Manifold Station, followed by 3 washes with ice-cold filtration buffer containing 50 mM Tris-HCl, pH 7.4. Filter plates were dried at 60° C. for 1 hour and 30 μl of scintillation cocktail were added to each well before radioactivity reading. Readings were performed in a Trilux 1450 Microbeta radioactive counter (Perkin Elmer).

Test [2] addresses Human norepinephrine transporter (NET) (Homo sapiens, UniProt P23975). Description: Binding assay to human norepinephrine transporter (NET), [3H]-Nisoxetin. Particulars: human NET enriched membranes, 5 nM [3H]-Nisoxetin. The procedure:
Binding Assay to Human Norepinephrine Transporter (NET).
Human norepinephrine transporter (NET) enriched membranes (5 μg) were incubated with 5 nM of radiolabeled [3H]-Nisoxetin in assay buffer containing 50 mM Tris-HCl, 120 mM NaCl, 5 mM KCl, pH 7.4. NSB (non specific binding) was measured by adding 10 μM of desipramine. The binding of the test compound was measured at five different concentrations. After 60 min incubation at 4° C., binding reaction was terminated by filtering through Multiscreen GF/C (Millipore) presoaked in 0.5% polyethyleneimine in Vacuum Manifold Station, followed by 3 washes with ice-cold filtration buffer containing 50 mM Tris-HCl, 0.9% NaCl, pH 7.4. Filter plates were dried at 60° C. for 1 hour and 30 μl of scintillation cocktail were added to each well before radioactivity reading. Readings were performed in a Trilux 1450 Microbeta radioactive counter (Perkin Elmer).

What is called Ki is the equilibrium dissociation constant of an inhibitor or competing ligand from its target.

Sequence of Human α2δ-1 Subunit of Cav2.2 Calcium Channel (P54289 25-1103): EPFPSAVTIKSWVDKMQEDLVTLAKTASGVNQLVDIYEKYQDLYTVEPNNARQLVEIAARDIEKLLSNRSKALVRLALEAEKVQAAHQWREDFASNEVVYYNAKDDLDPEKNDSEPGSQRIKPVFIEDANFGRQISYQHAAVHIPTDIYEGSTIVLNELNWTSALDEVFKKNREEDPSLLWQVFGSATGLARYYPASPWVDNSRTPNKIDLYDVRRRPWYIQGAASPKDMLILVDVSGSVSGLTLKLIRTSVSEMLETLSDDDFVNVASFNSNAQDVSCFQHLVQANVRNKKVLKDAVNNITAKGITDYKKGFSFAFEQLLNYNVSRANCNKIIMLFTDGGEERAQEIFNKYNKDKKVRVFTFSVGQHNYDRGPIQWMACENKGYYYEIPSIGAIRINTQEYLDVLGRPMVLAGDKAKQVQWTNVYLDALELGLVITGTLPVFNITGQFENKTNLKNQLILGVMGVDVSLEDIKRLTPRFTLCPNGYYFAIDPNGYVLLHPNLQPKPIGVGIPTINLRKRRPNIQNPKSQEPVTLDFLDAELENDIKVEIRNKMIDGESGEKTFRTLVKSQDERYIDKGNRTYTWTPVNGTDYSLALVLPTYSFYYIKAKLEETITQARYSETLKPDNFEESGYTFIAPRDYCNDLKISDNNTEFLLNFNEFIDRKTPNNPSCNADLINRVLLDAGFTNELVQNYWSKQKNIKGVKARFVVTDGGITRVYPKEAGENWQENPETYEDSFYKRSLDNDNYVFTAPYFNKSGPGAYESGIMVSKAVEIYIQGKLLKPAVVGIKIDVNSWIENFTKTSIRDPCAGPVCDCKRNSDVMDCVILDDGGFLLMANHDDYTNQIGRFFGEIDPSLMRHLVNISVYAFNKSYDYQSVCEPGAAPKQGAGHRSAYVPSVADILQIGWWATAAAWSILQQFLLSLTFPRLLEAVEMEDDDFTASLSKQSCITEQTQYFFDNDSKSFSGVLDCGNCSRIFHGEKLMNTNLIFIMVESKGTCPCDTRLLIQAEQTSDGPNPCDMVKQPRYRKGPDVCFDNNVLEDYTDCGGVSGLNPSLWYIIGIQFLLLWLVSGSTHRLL
Sequence of Human norepinephrine transporter (NET) (P23975 whole entry): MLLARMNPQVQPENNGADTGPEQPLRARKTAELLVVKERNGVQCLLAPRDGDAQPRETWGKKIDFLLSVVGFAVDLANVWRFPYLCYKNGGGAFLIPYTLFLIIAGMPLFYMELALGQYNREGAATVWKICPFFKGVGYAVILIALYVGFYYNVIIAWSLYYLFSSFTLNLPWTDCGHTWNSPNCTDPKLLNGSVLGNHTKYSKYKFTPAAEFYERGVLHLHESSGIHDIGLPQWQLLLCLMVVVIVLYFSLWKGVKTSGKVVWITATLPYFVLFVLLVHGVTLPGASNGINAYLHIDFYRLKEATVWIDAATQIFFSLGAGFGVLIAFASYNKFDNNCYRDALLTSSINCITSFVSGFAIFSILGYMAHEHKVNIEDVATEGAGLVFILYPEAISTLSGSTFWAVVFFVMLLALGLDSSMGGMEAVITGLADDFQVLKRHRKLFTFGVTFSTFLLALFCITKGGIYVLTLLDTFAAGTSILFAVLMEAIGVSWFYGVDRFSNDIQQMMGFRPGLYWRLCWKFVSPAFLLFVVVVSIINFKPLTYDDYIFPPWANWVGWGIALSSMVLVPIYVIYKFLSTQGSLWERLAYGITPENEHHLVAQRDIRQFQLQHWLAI

`CNCCC(Oc1cccc(-n2nc3c(N)nnc(C)c3c2C)c1)c1ccccc1` (stereo not shown) [Example 27, 3,4-dimethyl-2-(3-(3-(methylamino)-1-phenylpropoxy)phenyl)-2H-pyrazolo[3,4-d]pyridazin-7-amine]: the Ki in test [1] was 500 to 5000 nM; in test [2], below 100 nM.

On to `Cc1nnc(N)c2nn(-c3cccc(OC(CCN)c4ccccc4F)c3)c(C)c12` (stereo not shown) [Example 28, 2-(3-(3-amino-1-(2-fluorophenyl)propoxy)phenyl)-3,4-dimethyl-2H-pyrazolo[3,4-d]pyridazin-7-amine], for which the figures for the Ki in test [1] and in test [2] were 500 to 5000 nM and 500 to 1000 nM, respectively.

For `Cc1nnc(N(C)C)c2nn(-c3cccc(OCC4CCNCC4)c3)c(C)c12` [Example 29, N,N,3,4-tetramethyl-2-(3-(piperidin-4-ylmethoxy)phenyl)-2H-pyrazolo[3,4-d]pyridazin-7-amine], the Ki is at least 5000 nM in test [1] and at least 1000 nM in test [2].

`CNCCC(Oc1cccc(-n2nc3c(N(C)C)nnc(C)c3c2C)c1)c1ccccc1F` (stereo not shown) [Example 30, 2-(3-(1-(2-Fluorophenyl)-3-(methylamino)propoxy)phenyl)-N,N,3,4-tetramethyl-2H-pyrazolo[3,4-d]pyridazin-7-amine]: the values for the Ki in test [1] and in test [2] were 500 to 5000 nM and below 100 nM, respectively.

On to `CNCCC(Oc1cccc(-n2nc3c(N(C)CCO)nnc(C)c3c2C)c1)c1ccccc1F` (stereo not shown) [Example 31, 2-((2-(3-(1-(2-fluorophenyl)-3-(methylamino)propoxy)phenyl)-3,4-dimethyl-2H-pyrazolo[3,4-d]pyridazin-7-yl)(methyl)amino)ethanol], for which the Ki in test [1] was 500 to 5000 nM; in test [2], below 100 nM.

As to `CNCCC(Oc1cccc(-n2nc3c(N(C)CCCO)nnc(C)c3c2C)c1)c1ccccc1F` (stereo not shown) [Example 32, 3-((2-(3-(1-(2-fluorophenyl)-3-(methylamino)propoxy)phenyl)-3,4-dimethyl-2H-pyrazolo[3,4-d]pyridazin-7-yl)(methyl)amino)propan-1-ol], the Ki in test [1] was 500 to 5000 nM; in test [2], below 100 nM.

For `CNCCC(Oc1cccc(-n2nc3c(N4CC(OC)C4)nnc(C)c3c2C)c1)c1ccccc1F` (stereo not shown) [Example 33, 3-(2-fluorophenyl)-3-(3-(7-(3-methoxyazetidin-1-yl)-3,4-dimethyl-2H-pyrazolo[3,4-d]pyridazin-2-yl)phenoxy)-N-methylpropan-1-amine], the Ki in test [1] lay in the range of 500 to 5000 nM; in test [2] it was 500 to 1000 nM.

Consider `CNCCC(Oc1cccc(-n2nc3c(N(C)C)nnc(C)c3c2C)c1)c1nccs1` (stereo not shown) [Example 34, N,N,3,4-Tetramethyl-2-(3-(3-(methylamino)-1-(thiazol-2-yl)propoxy)phenyl)-2H-pyrazolo[3,4-d]pyridazin-7-amine], for which the Ki is below 500 nM in test [1] and at least 1000 nM in test [2].

`CNCC(Oc1cccc(-n2nc3c(N(C)C)nnc(C)c3c2C)c1)c1ccccc1` (stereo not shown) [Example 35, N,N,3,4-tetramethyl-2-(3-(2-(methylamino)-1-phenylethoxy)phenyl)-2H-pyrazolo[3,4-d]pyridazin-7-amine]: the Ki was 500 to 5000 nM in test [1] and below 100 nM in test [2].

On to `CNCCC(Oc1cccc(-n2nc3c(N(C)C)nnc(C)c3c2C)c1)c1ccccc1OC` (stereo not shown) [Example 36, 2-(3-(1-(2-methoxyphenyl)-3-(methylamino)propoxy)phenyl)-N,N,3,4-tetramethyl-2H-pyrazolo[3,4-d]pyridazin-7-amine], for which the Ki was 500 to 5000 nM in test [1] and 100 to 500 nM in test [2].

As for `Cc1nnc(N(C)C)c2nn(-c3cccc(OC(CN(C)C)c4ccccc4)c3)c(C)c12` (stereo not shown) [Example 37, 2-(3-(2-(dimethylamino)-1-phenylethoxy)phenyl)-N,N,3,4-tetramethyl-2H-pyrazolo[3,4-d]pyridazin-7-amine], the figures for the inhibition constant Ki in test [1] and in test [2] were 500 to 5000 nM and 100 to 500 nM, respectively.

As to `CNCCC(Cc1ccccc1)Oc1cccc(-n2nc3c(N(C)C)nnc(C)c3c2C)c1` (stereo not shown) [Example 38, N,N,3,4-tetramethyl-2-(3-((4-(methylamino)-1-phenylbutan-2-yl)oxy)phenyl)-2H-pyrazolo[3,4-d]pyridazin-7-amine], the Ki lay in the range of 500 to 5000 nM in test [1] and 100 to 500 nM in test [2].

On to `CNCCC(Oc1cccc(-n2nc3c(N(C)C)nnc(C)c3c2C)c1)c1cccc(OC)c1` (stereo not shown) [Example 39, 2-(3-(1-(3-methoxyphenyl)-3-(methylamino)propoxy)phenyl)-N,N,3,4-tetramethyl-2H-pyrazolo[3,4-d]pyridazin-7-amine], for which the Ki in test [1] was 500 to 5000 nM; in test [2], below 100 nM.

In the case of `CNCC(Oc1cccc(-n2nc3c(N(C)C)nnc(C)c3c2C)c1)c1cccs1` (stereo not shown) [Example 40, N,N,3,4-tetramethyl-2-(3-(2-(methylamino)-1-(thiophen-2-yl)ethoxy)phenyl)-2H-pyrazolo[3,4-d]pyridazin-7-amine], the inhibition constant (Ki) in test [1] lay within 500 to 5000 nM; in test [2], 500 to 1000 nM.

As to `CNCC(Oc1cccc(-n2nc3c(N(C)C)nnc(C)c3c2C)c1)c1ccccc1F` (stereo not shown) [Example 41, 2-(3-(1-(2-fluorophenyl)-2-(methylamino)ethoxy)phenyl)-N,N,3,4-tetramethyl-2H-pyrazolo[3,4-d]pyridazin-7-amine], the Ki is 500 to 5000 nM in test [1] and 100 to 500 nM in test [2].

As to `CNCCC(Oc1cccc(-n2nc3c(N(C)C)nnc(C)c3c2C)c1)c1cccnc1` (stereo not shown) [Example 42, N,N,3,4-tetramethyl-2-(3-(3-(methylamino)-1-(pyridin-3-yl)propoxy)phenyl)-2H-pyrazolo[3,4-d]pyridazin-7-amine], the Ki was below 500 nM in test [1] and 100 to 500 nM in test [2].

As to `CNCC(Oc1cccc(-n2nc3c(N(C)C)nnc(C)c3c2C)c1)c1cccc(F)c1` (stereo not shown) [Example 43, 2-(3-(1-(3-fluorophenyl)-2-(methylamino)ethoxy)phenyl)-N,N,3,4-tetramethyl-2H-pyrazolo[3,4-d]pyridazin-7-amine], the Ki in test [1] is 500 to 5000 nM; in test [2], below 100 nM.

For the compound `Cc1nnc(N(C)C)c2nn(-c3cccc(OC(Cc4ccccc4)CN(C)Cc4ccccc4)c3)c(C)c12` (stereo not shown) [Example 44, 2-(3-((1-(benzyl(methyl)amino)-3-phenylpropan-2-yl)oxy)phenyl)-N,N,3,4-tetramethyl-2H-pyrazolo[3,4-d]pyridazin-7-amine], the figures for the Ki in test [1] and in test [2] were at least 5000 nM and at least 1000 nM, respectively.

`CNCC(Oc1cccc(-n2nc3c(N(C)C)nnc(C)c3c2C)c1)c1cccnc1` (stereo not shown) [Example 45, N,N,3,4-tetramethyl-2-(3-(2-(methylamino)-1-(pyridin-3-yl)ethoxy)phenyl)-2H-pyrazolo[3,4-d]pyridazin-7-amine]: the Ki in test [1] is 500 to 5000 nM; in test [2], at least 1000 nM.

Turning to `CNCCC(Oc1cccc(-n2nc3c(N(C)C)nnc(C)c3c2C)c1)c1ccc(OC(F)(F)F)cc1` (stereo not shown) [Example 46, N,N,3,4-tetramethyl-2-(3-(3-(methylamino)-1-(4-(trifluoromethoxy)phenyl)propoxy)phenyl)-2H-pyrazolo[3,4-d]pyridazin-7-amine], the Ki in test [1] lay within 500 to 5000 nM; in test [2], 100 to 500 nM.

Take `CNC(COc1cccc(-n2nc3c(N(C)C)nnc(C)c3c2C)c1)Cc1ccccc1` (stereo not shown) [Example 47, N,N,3,4-tetramethyl-2-(3-(2-(methylamino)-3-phenylpropoxy)phenyl)-2H-pyrazolo[3,4-d]pyridazin-7-amine]: the Ki was below 500 nM in test [1] and below 100 nM in test [2].

For `CNCCC(Oc1cccc(-n2nc3c(N(C)C)nnc(C)c3c2C)c1)c1cncs1` (stereo not shown) [Example 48, N,N,3,4-tetramethyl-2-(3-(3-(methylamino)-1-(thiazol-5-yl)propoxy)phenyl)-2H-pyrazolo[3,4-d]pyridazin-7-amine], the Ki in test [1] was below 500 nM; in test [2], 500 to 1000 nM.

In the case of `CNC1(CC(Oc2cccc(-n3nc4c(N(C)C)nnc(C)c4c3C)c2)c2ccccc2)CC1` (stereo not shown) [Example 49, N,N,3,4-tetramethyl-2-(3-(2-(1-(methylamino)cyclopropyl)-1-phenylethoxy)phenyl)-2H-pyrazolo[3,4-d]pyridazin-7-amine], the Ki in test [1] was 500 to 5000 nM; in test [2], below 100 nM.

Consider `Cc1nnc(N(C)C)c2nn(-c3cccc(OC(CCN)c4cccnc4)c3)c(C)c12` (stereo not shown) [Example 50, 2-(3-(3-amino-1-(pyridin-3-yl)propoxy)phenyl)-N,N,3,4-tetramethyl-2H-pyrazolo[3,4-d]pyridazin-7-amine], for which the inhibition constant (Ki) in test [1] was 500 to 5000 nM; in test [2], at least 1000 nM.

Take `CNCCC(Oc1cccc(-n2nc3c(N(C)C)nnc(C)c3c2C)c1)c1cccs1` (stereo not shown) [Example 51, N,N,3,4-Tetramethyl-2-(3-(3-(methylamino)-1-(thiophen-2-yl)propoxy)phenyl)-2H-pyrazolo[3,4-d]pyridazin-7-amine]: the Ki is 500 to 5000 nM in test [1] and below 100 nM in test [2].

Turning to `Cc1nnc(N(C)C)c2nn(-c3cccc(OC(CN(C)C)c4cccnc4)c3)c(C)c12` (stereo not shown) [Example 52, 2-(3-(2-(Dimethylamino)-1-(pyridin-3-yl)ethoxy)phenyl)-N,N,3,4-tetramethyl-2H-pyrazolo[3,4-d]pyridazin-7-amine], the Ki in test [1] was 500 to 5000 nM; in test [2], at least 1000 nM.
